We go through 15 compounds from patent publication US10208021B2, “Substituted tetrahydroisoquinoline compounds as factor XIa inhibitors” (BRISTOL-MYERS SQUIBB COMPANY, priority 2011, dated 2019).

As a reminder, the Ki is a dissociation constant, usually derived from enzyme kinetics or from competition with a known ligand. A higher Ki goes with lower affinity.

SMILES strings stand for the structures. Counter-ions that a name gives are not always drawn.

The target in the first experiment is purified human Factor XIa (Homo sapiens (Human), UniProt P03951). As to the kind of experiment: Factor XIa chromogenic substrate (S-2366) inhibition assay. To be noted: substrate S-2366, Table 1. Format: biochemical. A digest of the protocol: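 Ki derived from reaction velocities measured in the presence of inhibitor. Purified protease hydrolysed the chromogenic substrate; rate of absorbance change was followed over 20-180 minutes, depending on the protease.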
Chain of purified human Factor XIa (P03951 388-625): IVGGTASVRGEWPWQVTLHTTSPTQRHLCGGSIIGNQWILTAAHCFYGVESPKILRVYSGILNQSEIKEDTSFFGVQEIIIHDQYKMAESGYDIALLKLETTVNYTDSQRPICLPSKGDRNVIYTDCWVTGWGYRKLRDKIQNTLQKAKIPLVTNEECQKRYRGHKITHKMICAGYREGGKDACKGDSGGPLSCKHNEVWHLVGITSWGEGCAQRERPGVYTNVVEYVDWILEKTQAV
Chain of purified human Factor XIa (P03951 19-387 partner): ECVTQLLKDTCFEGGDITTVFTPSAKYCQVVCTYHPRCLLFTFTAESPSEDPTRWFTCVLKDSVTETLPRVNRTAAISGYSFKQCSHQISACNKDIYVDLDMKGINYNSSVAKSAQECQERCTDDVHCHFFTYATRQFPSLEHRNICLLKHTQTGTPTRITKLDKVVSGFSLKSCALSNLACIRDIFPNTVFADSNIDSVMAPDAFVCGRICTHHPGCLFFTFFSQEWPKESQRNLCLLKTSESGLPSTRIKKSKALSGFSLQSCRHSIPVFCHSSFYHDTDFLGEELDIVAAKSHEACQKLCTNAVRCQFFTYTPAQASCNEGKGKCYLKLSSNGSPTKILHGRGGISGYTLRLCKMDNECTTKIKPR
Compound `CCOC(=O)c1ccc(NC(=O)[C@H]2c3cccc(N4CCNCC4=O)c3CCN2C(=O)/C=C/c2c(-n3cnnn3)ccc(Cl)c2F)cc1` [Example 189] gave a Ki of 1690 nM.

`CCOC(=O)c1ccc(NC(=O)[C@H]2c3cccc(N4CCN(C)CC4=O)c3CCN2C(=O)/C=C/c2c(-n3cnnn3)ccc(Cl)c2F)cc1` [Example 191, (R,E)-Ethyl 4-(2-(3-(3-chloro-2-fluoro-6-(1H-tetrazol-1-yl)phenyl)acryloyl)-5-(4-methyl-2-oxopiperazin-1-yl)-1,2,3,4-tetrahydroisoquinoline-1-carboxamido)benzoate, TFA Salt]: the Ki turned out to be 1050 nM. Same read-out and setting: as for `CC1(C)Cc2c(cccc2N2CCNCC2)[C@H](C(=O)Nc2ccc(C(=O)O)cc2)N1C(=O)/C=C/c1c(-n2cnnn2)ccc(Cl)c1F` [Example 193, (R,E)-4-(2-(3-(3-Chloro-2-fluoro-6-(1H-tetrazol-1-yl)phenyl)acryloyl)-3,3-dimethyl-5-(piperazin-1-yl)-1,2,3,4-tetrahydroisoquinoline-1-carboxamido) benzoic acid, bis-TFA salt], the figure is 107 nM; as for `CC1(C)Cc2c(cccc2N2CCCCC2)[C@H](C(=O)Nc2ccc(C(=O)O)cc2)N1C(=O)/C=C/c1c(-n2cnnn2)ccc(Cl)c1F` [Example 196], 844 nM; as for `CCOC(=O)c1ccc(NC(=O)[C@H]2c3cccc(N4CCOCC4)c3CC(C)(C)N2C(=O)/C=C/c2c(-n3cnnn3)ccc(Cl)c2F)cc1` [Example 198], 5740 nM.

Staying with this experiment, now noted: substrate S-2366, activity ranges, Table A.
Consider `CCOC(=O)c1ccc(NC(=O)[C@@H]2c3cccc(N4CCNCC4=O)c3CCN2C(=O)/C=C/c2c(-n3cnnn3)ccc(Cl)c2F)cc1` [Example 190], for which the Ki lay in the range of 5 to 10 nM. Still for that read-out and setting: then `CCOC(=O)c1ccc(NC(=O)[C@@H]2c3cccc(N4CCN(C)CC4=O)c3CCN2C(=O)/C=C/c2c(-n3cnnn3)ccc(Cl)c2F)cc1` [Example 192, (S,E)-Ethyl 4-(2-(3-(3-chloro-2-fluoro-6-(1H-tetrazol-1-yl)phenyl)acryloyl)-5-(4-methyl-2-oxopiperazin-1-yl)-1,2,3,4-tetrahydroisoquinoline-1-carboxamido)benzoate, TFA Salt], with 5 to 10 nM. On the same count and under the same terms, then `CC1(C)Cc2c(cccc2N2CCNCC2)[C@@H](C(=O)Nc2ccc(C(=O)O)cc2)N1C(=O)/C=C/c1c(-n2cnnn2)ccc(Cl)c1F` [Example 194, (S,E)-4-(2-(3-(3-Chloro-2-fluoro-6-(1H-tetrazol-1-yl)phenyl)acryloyl)-3,3-dimethyl-5-(piperazin-1-yl)-1,2,3,4-tetrahydroisoquinoline-1-carboxamido) benzoic acid, bis-TFA salt], with less than 5 nM. In turn, `CC1(C)Cc2c(cccc2N2CCCCC2)[C@@H](C(=O)Nc2ccc(C(=O)O)cc2)N1C(=O)/C=C/c1c(-n2cnnn2)ccc(Cl)c1F` [Example 195] showed a Ki of less than 5 nM. `CCOC(=O)c1ccc(NC(=O)[C@@H]2c3cccc(N4CCOCC4)c3CC(C)(C)N2C(=O)/C=C/c2c(-n3cnnn3)ccc(Cl)c2F)cc1` [Example 197] yielded a Ki of 5 to 10 nM. As for `CC1(C)Cc2c(cccc2N2CCOCC2)[C@@H](C(=O)Nc2ccc(C(=O)O)cc2)N1C(=O)/C=C/c1c(-n2cnnn2)ccc(Cl)c1F` [Example 199], the Ki was less than 5 nM. On the same count and under the same terms, then `CC1(C)Cc2c(cccc2N2CCOCC2)[C@H](C(=O)Nc2ccc(C(=O)O)cc2)N1C(=O)/C=C/c1c(-n2cnnn2)ccc(Cl)c1F` [Example 200], with 100 to 500 nM.

In turn, `CN1CCN(c2cccc3c2CC(C)(C)N(C(=O)/C=C/c2c(-n4cnnn4)ccc(Cl)c2F)[C@@H]3C(=O)Nc2ccc(C(=O)O)cc2)CC1` [Example 201] had a Ki of less than 5 nM.

As for `CN1CCN(c2cccc3c2CC(C)(C)N(C(=O)/C=C/c2c(-n4cnnn4)ccc(Cl)c2F)[C@H]3C(=O)Nc2ccc(C(=O)O)cc2)CC1` [Example 202], the Ki fell in the range of 100 to 500 nM.

The compound `CCOC(=O)c1ccc(NC(=O)[C@@H]2c3cccc(N4CCN(C)CC4)c3CC(C)(C)N2C(=O)/C=C/c2c(-n3cnnn3)ccc(Cl)c2F)cc1` [Example 203] came in with a Ki of 5 to 10 nM.
